Active and inactive are the calls of the source.
Experiments:
[1] = MITF: Counter assay: A375 proliferation Measured in Cell-Based System Using Plate Reader - 2084-03_Inhibitor_Dose_DryPowder_Activity_Set8.; type: functional; details: A-375
[2] = TRPM1 promoter luciferase reporter signal decrease, dose response, MITF inhibitor project, cell-based, SK-MEL-5, dry powder, set 8 (AID 624430); type: functional
[3] = MITF Orthogonal Assay: SK-MEL-5 CTG Assay Measured in Cell-Based System Using Plate Reader - 2084-02_Inhibitor_Dose_DryPowder_Activity_Set7.; type: functional
[4] = Artemis endonuclease inhibitor potency, dose response, biochemical, fluorescence intensity (AID 720701); type: functional;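 further: Artemis endonuclease enzyme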
[5] = growth suppression of beta-catenin-knockout colon cells, dose response, cell-based, HCT116, human colon tumor (AID 1045); type: functional;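 further: HCT116 colon tumor cells with beta catenin knocked out; cells exposed to compound for 60 hours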
[6] = growth suppression of PTEN-null colon cells, dose response, cell-based, HCT116 PTEN knockout (AID 1047); type: functional;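 further: HCT116 colon tumor cells with PTEN knocked out; cells exposed to compound for 60 hours before readout; potency for loss of cell viability measured by luminescence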
[7] = A375 melanoma cell viability loss, dose response, counter-screen for MITF inhibitor project, CellTiter-Glo luminescence, dry powder, set 4 (AID 624364); type: functional, cell-based; details: A-375;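 further: A375 melanoma cells are MITF independent so this is a counter screen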
[8] = A375 melanoma cell cytotoxicity, dose response, counter-screen for MITF inhibitor project, CellTiter-Glo luminescence, dry powder, set 2 (AID 624489); type: functional, cell-based; details: A-375;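 further: actives are compounds lowering A375 viability meaning general cytotoxicity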
Fatty acid synthase = Fatty acid synthase (Homo sapiens, UniProt P49327); experiment: FAS thioesterase domain inhibitors, SAR follow-up, biochemical, endpoint fluorescence intensity, powder samples (AID 652164); type: functional
[9] = target: Tyrosyl-DNA phosphodiesterase 2 (Homo sapiens, UniProt O95551); experiment: human TDP2 enzyme inhibitors, dose response, biochemical, epi absorbance, IC50 (AID 743297)
Protein RecA = target: T1, Protein RecA (Mycobacterium tuberculosis, UniProt P9WHJ3); experiment: Fluorescence Cell-Free Homogeneous Dose Retest to Identify Inhibitors of RecA-Intein Splicing Activity. [Related pubchem assays (depositor defined):AID2097, AID2223, AID489010, AID492950]; type: functional
T1 sequence (P9WHJ3 whole entry): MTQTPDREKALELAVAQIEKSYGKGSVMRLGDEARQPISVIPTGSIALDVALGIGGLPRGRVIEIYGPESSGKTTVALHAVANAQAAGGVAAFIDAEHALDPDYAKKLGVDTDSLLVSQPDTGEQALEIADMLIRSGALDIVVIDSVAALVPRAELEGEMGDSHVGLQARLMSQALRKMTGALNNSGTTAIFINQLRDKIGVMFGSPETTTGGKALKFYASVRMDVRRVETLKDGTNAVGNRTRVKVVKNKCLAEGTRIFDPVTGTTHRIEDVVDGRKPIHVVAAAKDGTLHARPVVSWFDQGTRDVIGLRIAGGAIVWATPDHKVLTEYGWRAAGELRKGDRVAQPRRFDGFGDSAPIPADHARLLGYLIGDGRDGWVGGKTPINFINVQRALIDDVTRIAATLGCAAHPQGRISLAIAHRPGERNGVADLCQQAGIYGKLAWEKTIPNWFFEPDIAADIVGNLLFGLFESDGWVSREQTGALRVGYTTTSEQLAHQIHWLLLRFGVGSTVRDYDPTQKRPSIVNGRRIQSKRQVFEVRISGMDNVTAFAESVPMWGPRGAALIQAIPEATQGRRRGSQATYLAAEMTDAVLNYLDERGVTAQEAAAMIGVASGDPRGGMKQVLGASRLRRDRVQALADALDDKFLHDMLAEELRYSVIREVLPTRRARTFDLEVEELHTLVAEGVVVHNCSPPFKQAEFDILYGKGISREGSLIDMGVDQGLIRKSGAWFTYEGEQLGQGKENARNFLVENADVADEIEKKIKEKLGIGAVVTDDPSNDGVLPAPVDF

[10] = THP-1 cell cytotoxicity, dose response, cytotoxicity control for non-replicating M. tuberculosis project (AID 489025); type: functional
cells = type: functional
[11] = target: 1-phosphatidylinositol 4,5-bisphosphate phosphodiesterase gamma-1 (Homo sapiens, UniProt P19174); experiment: Counterscreen for inhibitors of phospholipase C isozymes (PLC-B3): Fluorescence-based biochemical high throughput dose response assay to identify inhibitors of phospholipase C isozymes (PLC-gamma1).
[12] = target: T2, Replicative DNA helicase DnaB (Mycobacterium tuberculosis, UniProt P9WMR3); experiment: DnaB intein splicing inhibitors, dose response, biochemical, cell-free fluorescence (AID 449749); type: functional
T2 sequence (P9WMR3 whole entry): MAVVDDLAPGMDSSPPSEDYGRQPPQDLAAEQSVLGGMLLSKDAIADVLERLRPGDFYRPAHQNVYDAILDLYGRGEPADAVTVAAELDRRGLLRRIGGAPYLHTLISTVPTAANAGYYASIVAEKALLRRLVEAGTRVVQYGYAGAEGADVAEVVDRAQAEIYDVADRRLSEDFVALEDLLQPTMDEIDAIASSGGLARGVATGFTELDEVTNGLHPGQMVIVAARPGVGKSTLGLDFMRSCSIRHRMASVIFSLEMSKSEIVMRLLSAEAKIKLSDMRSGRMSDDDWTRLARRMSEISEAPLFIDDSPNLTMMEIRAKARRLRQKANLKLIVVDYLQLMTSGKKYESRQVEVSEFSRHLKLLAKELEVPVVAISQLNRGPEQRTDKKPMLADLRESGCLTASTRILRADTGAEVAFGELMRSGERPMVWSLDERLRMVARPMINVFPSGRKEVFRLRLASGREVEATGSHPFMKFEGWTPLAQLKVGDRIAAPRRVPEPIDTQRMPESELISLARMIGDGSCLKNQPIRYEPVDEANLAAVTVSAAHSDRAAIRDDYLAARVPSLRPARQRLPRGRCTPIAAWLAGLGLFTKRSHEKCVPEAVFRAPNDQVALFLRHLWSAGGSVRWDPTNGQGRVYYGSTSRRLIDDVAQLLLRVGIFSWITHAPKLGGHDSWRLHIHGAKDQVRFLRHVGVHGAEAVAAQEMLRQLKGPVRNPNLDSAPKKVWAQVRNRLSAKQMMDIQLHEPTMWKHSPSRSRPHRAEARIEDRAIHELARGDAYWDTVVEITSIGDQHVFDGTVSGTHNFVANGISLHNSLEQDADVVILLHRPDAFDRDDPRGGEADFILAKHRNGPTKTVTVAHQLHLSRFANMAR

[13] = target: 1-phosphatidylinositol 4,5-bisphosphate phosphodiesterase beta-3 (Homo sapiens, UniProt Q01970); experiment: Fluorescence-based biochemical high throughput dose response assay to identify inhibitors of phospholipase C isozymes (PLC-B3).
[14] = microbe, parasite or virus in culture; type: functional; details: Mycobacterium tuberculosis
[15] = target: Matrix metalloproteinase-14 (Homo sapiens, UniProt P50281); experiment: Dose Response confirmation of uHTS hits for a small molecule inhibitors of MT1-MMP activation in a fluorescence assay set 1.; type: functional
[16] = target: NAD-dependent protein deacylase sirtuin-5, mitochondrial (Homo sapiens, UniProt Q9NXA8); experiment: SIRT5 deacylase inhibitors, dose response, biochemical, fluorescence imaging, cherry-pick, set 6 (AID 720597)
[17] = THP-1 cell cytotoxicity, dose response, cytotoxicity control for Vif-APOBEC3G degradation inhibitor project, THP-1 cells (AID 1117359); type: functional; details: Human immunodeficiency virus 1, THP-1
[18] = T. cruzi growth inhibition in host cells, dose response, cell-based, plate reader, dry powder, set 2 (AID 652275); type: functional

1-phosphatidylinositol 4,5-bisphosphate phosphodiesterase gamma-1, sequence (P19174 whole entry): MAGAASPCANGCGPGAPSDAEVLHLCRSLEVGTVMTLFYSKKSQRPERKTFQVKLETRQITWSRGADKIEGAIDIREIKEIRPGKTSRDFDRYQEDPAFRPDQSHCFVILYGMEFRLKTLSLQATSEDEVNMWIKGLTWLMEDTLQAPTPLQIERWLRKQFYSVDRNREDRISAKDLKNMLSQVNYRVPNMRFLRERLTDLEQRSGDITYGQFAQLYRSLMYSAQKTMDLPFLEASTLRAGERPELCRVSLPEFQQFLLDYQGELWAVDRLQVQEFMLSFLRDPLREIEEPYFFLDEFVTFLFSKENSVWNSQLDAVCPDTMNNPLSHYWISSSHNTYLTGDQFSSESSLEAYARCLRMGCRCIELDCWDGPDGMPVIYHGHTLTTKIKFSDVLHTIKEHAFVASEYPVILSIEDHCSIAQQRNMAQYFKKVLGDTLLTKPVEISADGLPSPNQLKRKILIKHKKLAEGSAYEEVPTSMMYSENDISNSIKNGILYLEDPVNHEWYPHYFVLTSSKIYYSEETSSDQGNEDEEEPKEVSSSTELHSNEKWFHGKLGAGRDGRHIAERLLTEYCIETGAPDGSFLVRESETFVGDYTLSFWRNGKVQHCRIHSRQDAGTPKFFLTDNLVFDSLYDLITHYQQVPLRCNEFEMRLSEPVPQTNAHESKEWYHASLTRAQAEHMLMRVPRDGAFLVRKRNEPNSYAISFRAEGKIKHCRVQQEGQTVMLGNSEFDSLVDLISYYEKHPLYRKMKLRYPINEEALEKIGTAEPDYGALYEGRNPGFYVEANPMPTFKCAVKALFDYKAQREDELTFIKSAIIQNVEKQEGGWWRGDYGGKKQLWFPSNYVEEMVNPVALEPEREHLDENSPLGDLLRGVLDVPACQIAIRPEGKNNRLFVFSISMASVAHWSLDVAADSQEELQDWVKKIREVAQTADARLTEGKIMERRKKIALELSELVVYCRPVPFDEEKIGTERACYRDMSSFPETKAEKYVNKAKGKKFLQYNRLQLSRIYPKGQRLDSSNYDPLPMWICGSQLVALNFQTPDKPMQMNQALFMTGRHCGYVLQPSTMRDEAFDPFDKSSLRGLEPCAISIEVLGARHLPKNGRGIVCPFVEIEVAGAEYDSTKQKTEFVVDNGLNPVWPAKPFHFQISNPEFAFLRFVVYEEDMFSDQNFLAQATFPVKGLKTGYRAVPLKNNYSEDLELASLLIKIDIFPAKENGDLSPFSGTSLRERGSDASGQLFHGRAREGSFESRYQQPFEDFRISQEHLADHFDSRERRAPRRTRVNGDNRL
NAD-dependent protein deacylase sirtuin-5, mitochondrial, sequence (Q9NXA8 whole entry): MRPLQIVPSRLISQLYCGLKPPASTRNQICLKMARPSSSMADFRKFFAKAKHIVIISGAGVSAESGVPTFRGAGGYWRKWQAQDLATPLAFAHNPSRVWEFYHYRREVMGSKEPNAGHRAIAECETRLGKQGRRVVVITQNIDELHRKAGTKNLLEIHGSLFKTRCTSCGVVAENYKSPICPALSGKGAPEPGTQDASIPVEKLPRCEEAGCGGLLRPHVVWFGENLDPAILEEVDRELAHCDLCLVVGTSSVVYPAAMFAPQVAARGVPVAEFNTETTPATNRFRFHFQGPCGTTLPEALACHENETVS
Fatty acid synthase, sequence (P49327 whole entry, the tested form may be a part): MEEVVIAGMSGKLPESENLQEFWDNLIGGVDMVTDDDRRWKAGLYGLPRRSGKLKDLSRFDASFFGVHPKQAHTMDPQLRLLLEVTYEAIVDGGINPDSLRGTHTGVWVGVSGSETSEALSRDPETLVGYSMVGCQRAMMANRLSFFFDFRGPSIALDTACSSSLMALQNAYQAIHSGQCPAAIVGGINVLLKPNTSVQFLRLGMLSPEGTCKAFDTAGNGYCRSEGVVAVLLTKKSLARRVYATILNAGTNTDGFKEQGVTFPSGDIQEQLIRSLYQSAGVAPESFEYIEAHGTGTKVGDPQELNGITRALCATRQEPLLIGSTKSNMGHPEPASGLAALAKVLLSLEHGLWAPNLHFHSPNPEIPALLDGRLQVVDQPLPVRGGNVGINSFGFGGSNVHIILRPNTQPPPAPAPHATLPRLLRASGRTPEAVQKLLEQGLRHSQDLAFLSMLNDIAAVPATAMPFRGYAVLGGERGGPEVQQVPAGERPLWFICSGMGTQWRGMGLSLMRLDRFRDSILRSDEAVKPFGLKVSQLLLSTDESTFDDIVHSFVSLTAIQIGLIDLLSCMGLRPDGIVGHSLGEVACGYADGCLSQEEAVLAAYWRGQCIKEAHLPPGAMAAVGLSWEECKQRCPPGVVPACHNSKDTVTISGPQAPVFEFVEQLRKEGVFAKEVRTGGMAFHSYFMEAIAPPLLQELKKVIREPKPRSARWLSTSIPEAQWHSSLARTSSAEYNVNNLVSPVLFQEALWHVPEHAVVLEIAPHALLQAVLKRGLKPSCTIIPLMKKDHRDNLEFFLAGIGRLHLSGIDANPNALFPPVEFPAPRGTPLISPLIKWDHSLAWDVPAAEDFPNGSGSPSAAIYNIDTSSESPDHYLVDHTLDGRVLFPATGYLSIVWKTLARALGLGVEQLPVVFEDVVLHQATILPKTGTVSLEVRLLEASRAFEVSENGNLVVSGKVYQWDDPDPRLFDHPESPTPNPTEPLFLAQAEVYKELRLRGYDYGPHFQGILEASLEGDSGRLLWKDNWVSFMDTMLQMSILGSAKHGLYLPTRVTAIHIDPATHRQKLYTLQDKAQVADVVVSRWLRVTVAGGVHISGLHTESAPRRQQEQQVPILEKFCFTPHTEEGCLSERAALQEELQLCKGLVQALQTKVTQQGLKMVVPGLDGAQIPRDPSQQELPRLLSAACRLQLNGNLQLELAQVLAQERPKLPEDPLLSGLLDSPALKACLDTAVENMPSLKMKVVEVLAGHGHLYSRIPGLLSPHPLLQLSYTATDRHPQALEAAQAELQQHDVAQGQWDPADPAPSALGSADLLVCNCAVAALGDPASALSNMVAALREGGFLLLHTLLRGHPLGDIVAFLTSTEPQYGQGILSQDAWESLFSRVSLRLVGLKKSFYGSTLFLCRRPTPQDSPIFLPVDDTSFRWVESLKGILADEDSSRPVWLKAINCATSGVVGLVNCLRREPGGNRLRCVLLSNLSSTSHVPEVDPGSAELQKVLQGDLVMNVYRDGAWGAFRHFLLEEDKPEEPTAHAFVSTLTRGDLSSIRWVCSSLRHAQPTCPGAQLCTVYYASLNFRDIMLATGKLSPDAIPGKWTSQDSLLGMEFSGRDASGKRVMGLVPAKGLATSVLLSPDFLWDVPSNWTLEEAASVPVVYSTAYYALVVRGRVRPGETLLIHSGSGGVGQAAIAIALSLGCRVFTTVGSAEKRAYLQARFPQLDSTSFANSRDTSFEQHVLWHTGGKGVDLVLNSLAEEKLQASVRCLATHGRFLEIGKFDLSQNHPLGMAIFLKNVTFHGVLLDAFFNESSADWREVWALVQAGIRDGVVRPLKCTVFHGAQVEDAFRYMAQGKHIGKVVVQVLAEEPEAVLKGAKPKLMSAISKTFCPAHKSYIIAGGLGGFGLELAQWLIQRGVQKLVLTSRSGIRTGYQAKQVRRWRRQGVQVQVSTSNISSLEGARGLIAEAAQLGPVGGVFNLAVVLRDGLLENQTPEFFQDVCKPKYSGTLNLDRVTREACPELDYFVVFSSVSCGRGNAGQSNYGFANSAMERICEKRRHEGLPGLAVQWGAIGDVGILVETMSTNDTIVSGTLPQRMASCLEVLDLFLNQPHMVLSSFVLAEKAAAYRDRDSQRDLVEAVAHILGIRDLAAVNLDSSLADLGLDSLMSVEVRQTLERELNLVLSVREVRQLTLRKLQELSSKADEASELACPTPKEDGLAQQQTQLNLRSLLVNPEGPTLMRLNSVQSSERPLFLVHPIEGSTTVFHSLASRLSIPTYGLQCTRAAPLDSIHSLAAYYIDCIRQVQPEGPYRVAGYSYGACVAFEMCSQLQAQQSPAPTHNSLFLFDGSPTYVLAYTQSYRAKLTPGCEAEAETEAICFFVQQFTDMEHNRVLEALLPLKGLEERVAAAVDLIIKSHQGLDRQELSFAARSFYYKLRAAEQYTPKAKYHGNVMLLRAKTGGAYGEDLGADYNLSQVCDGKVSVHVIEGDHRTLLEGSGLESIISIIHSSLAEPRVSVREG
Tyrosyl-DNA phosphodiesterase 2, sequence (O95551 whole entry): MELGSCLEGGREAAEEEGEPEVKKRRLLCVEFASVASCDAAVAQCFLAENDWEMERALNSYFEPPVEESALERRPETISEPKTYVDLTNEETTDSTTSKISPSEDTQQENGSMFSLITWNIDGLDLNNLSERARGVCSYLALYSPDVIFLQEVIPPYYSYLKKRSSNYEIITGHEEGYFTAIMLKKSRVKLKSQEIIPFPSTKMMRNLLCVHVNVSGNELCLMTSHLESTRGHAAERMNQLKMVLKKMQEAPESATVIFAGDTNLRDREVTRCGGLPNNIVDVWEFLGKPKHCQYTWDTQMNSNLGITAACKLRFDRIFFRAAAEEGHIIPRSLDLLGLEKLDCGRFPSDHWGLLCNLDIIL

O=C1C(Nc2cccc(Br)c2)=C(N2CCCCC2)C(=O)c2ccccc21
AC50 [1]: > 70 µM (inactive) | AC50 [2]: 9.81 µM (active) | AC50 [3]: 19.7 µM (active)

COc1ccc(Nc2nc(Nc3ccc(OC)cc3)nc(SC3=NCCS3)n2)cc1
IC50 [4]: 1.68 µM (active) | EC50 [5]: 71.1 µM (active) | EC50 [6]: 40.1 µM (active)

CCN1CCN(C2=C(NC(=O)c3ccc(Br)cc3)C(=O)c3ccccc3C2=O)CC1
AC50 [7]: 15.2 µM (active) | AC50 [8]: 6.71 µM (active)

CCCCC(=O)Nc1nc(-c2cccc(S(=O)(=O)N3CCOCC3)c2)cs1
IC50 (Fatty acid synthase): 20.2 µM (inactive)

CCOc1ccc(NC2=CC(=O)C(=O)c3ccccc32)cc1
IC50 [9]: > 128 µM (inactive)

Cc1c([N+](=O)[O-])cnc(Sc2ccccc2)c1[N+](=O)[O-]
EC50 (Protein RecA): 0.0479 µM (active) | CC50 [10]: 26.1 µM (active) | IC50 (cells): 7.94 µM (active) | IC50 [11]: > 122 µM (inactive) | AC50 [12]: 0.181 µM (active) | IC50 [13]: > 122 µM (inactive) | CC50 [14]: 30.3 µM (active)

CC(=O)Oc1ccc2oc(/C=C/N(C)C)c([N+](=O)[O-])c2c1
IC50 [15]: 56.8 µM (inactive)

Cc1noc(C)c1S(=O)(=O)Nc1ccc2c(c1)C(=O)N([C@@H](C)CO)C[C@H](C)[C@@H](CN(C)Cc1ccc(C(F)(F)F)cc1)OCCCC[C@H](C)O2
AC50 [16]: 12.2 µM (active) | CC50 [17]: 16.7 µM (active)

O=C(C1CCCC1)N1CCCCN2[C@@H](CO)[C@H](c3ccc(-c4cccc(F)c4)cc3)[C@@H]2C1
AC50 [18]: 0.121 µM (active)

From ChEMBL document CHEMBL1201862, “PubChem BioAssay data set” (2004)
